Patent US10681909B2, “Herbicidal triazoles” (FMC Corporation, priority 2014, dated 2020)

Experiments:
bromegrass, down = assay: Test D preemergence; format: in vivo, Bromus tectorum; details: for Plant response rating (0 to 100), Bromegrass, Down: 16 g ai/ha, 0 is no effect, 100 is complete control; for Plant response rating: Bromegrass, Down: scale 0 to 100
Excerpt: (§1) Seeds of plant species selected from bluegrass (annual bluegrass, Poa annua), blackgrass (Alopecurus myosuroides), canarygrass (Phalaris minor), chickweed (common chickweed, Stellaria media), galium (catchweed bedstraw, Galium aparine), bromegrass, down (downy bromegrass, Bromus tectorum), Russian thistle (Salsola kali), field poppy (Papaver rhoeas), field violet (Viola arvensis), foxtail, green (green foxtail, Setaria viridis), deadnettle (henbit deadnettle, Lamium amplexicaule), ryegrass, Ital. (Italian ryegrass, Lolium multiflorum), kochia (Kochia scoparia), lambsquarters (Chenopodium album), oilseed rape (Brassica napus), pigweed (Amaranthus retroflexus), chamomile (scentless chamomile, Matricaria inodora), speedwell (bird's-eye speedwell, Veronica persica), barley, spring (spring barley, Hordeum vulgare), wheat, spring (spring wheat, Triticum aestivum), buckwheat, wild (wild buckwheat, Polygonum convolvulus), wild mustard (Sinapis arvensis), oat, wild (wild oat, Avena fatua), radish, wild (wild radish, Raphanus raphanistrum), […]), barley, winter (winter barley, Hordeum vulgare), and wheat, winter (winter wheat, Triticum aestivum) were planted into a silt loam soil and treated preemergence with test chemicals formulated in a non-phytotoxic solvent mixture which included a surfactant. At the same time, these species were planted in pots containing Sunshine Redi-Earth® planting medium comprising spaghnum peat moss, vermiculite, starter nutrients and dolomitic limestone and treated with postemergence applications of the test chemicals formulated in the same manner. Plants ranged in height from 2 to 18 cm (1- to 4-leaf stage). Treated plants and controls were maintained in a controlled growth environment for 14 to 21 d after which time all species were compared to controls and visually evaluated. […] A dash (-) response means no test result.

wild mustard = assay: Test D postemergence; format: in vivo, Sinapis arvensis; details: scale 0 to 100
Excerpt: as §1

galium = assay: Test D preemergence; format: in vivo, Galium aparine; details: for Plant response rating (0 to 100), Galium: 16 g ai/ha, 0 is no effect, 100 is complete control; for Plant response rating: Galium: scale 0 to 100
Excerpt: as §1

bluegrass = assay: Test D preemergence; format: in vivo, Poa annua; details: for Plant response rating (0 to 100), Bluegrass: 16 g ai/ha, 0 is no effect, 100 is complete control; for Plant response rating: Bluegrass: scale 0 to 100
Excerpt: as §1

ragweed [1] = assay: Test A preemergence; format: in vivo, Ambrosia elatior; details: 0 to 100 scale (0 no effect, 100 complete control)
Outline: (§2)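 Ratings reflect visual injury after ~10 d in greenhouse, 0 = no effect, 100 = complete control. Postemergence treatment was applied to one- to two-leaf seedlings; preemergence treatment was a directed soil spray at planting.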

foxtail, green [2] = assay: Test D postemergence; format: in vivo, Setaria viridis; details: scale 0 to 100
Excerpt: as §1

foxtail, green [3] = assay: Test D preemergence; format: in vivo, Setaria viridis; details: for Plant response rating (0 to 100), Foxtail, Green: 16 g ai/ha, 0 is no effect, 100 is complete control; for Plant response rating: Foxtail, Green: scale 0 to 100
Excerpt: as §1

ryegrass, Italian = assay: Test A preemergence; format: in vivo, Lolium multiflorum; details: 0 to 100 scale (0 no effect, 100 complete control)
Outline: as §2

ragweed [4] = assay: Test A postemergence; format: in vivo, Ambrosia elatior; details: 0 to 100 scale (0 no effect, 100 complete control), approx. 10 d
Outline: as §2

blackgrass = assay: Test D preemergence; format: in vivo, Alopecurus myosuroides; details: for Plant response rating (0 to 100), Blackgrass: 16 g ai/ha, 0 is no effect, 100 is complete control; for Plant response rating: Blackgrass: scale 0 to 100
Excerpt: as §1

oilseed rape = assay: Test D postemergence; format: in vivo, Brassica napus; details: scale 0 to 100
Excerpt: as §1

kochia = assay: Test D postemergence; format: in vivo, Kochia scoparia; details: scale 0 to 100
Excerpt: as §1

SMILES: CCOc1nc(-c2ccc(C(F)(F)F)cc2)nn1Cc1ccnc(C(F)(F)F)c1 [Compound 35, 4-[[5-ethoxy-3-[4-(trifluoromethyl)phenyl]-1H-1,2,4-triazole-1-yl]methyl]-2-(trifluoromethyl)pyridine]
- Plant response rating (0 to 100), Bromegrass, Down (bromegrass, down): 15
- Plant response rating: Bromegrass, Down (bromegrass, down; 31 g ai/ha): 40
- Plant response rating: Bromegrass, Down (bromegrass, down; 62 g ai/ha): 60
- Plant response rating: Bromegrass, Down (bromegrass, down; 125 g ai/ha): 75
- Plant response rating: Mustard, Wild (wild mustard; 16 g ai/ha): 70
- Plant response rating: Mustard, Wild (wild mustard; 31 g ai/ha): 100
- Plant response rating: Mustard, Wild (wild mustard; 62 g ai/ha): 100
- Plant response rating: Mustard, Wild (wild mustard; 125 g ai/ha): 100
- Plant response rating (0 to 100), Galium (galium): 70
- Plant response rating: Galium (galium; 62 g ai/ha): 80
- Plant response rating: Galium (galium; 125 g ai/ha): 80
- Plant response rating (0 to 100), Bluegrass (bluegrass): 70
- Plant response rating: Bluegrass (bluegrass; 31 g ai/ha): 80
- Plant response rating: Bluegrass (bluegrass; 62 g ai/ha): 95
- Plant response rating: Bluegrass (bluegrass; 125 g ai/ha): 100
- Plant response rating, Ragweed (ragweed [1]; 31 g ai/ha): 20
- Plant response rating, Ragweed (ragweed [1]; 125 g ai/ha): 50
- Plant response rating: Foxtail, Green (foxtail, green [2]; 16 g ai/ha): 70
- Plant response rating: Foxtail, Green (foxtail, green [2]; 31 g ai/ha): 80
- Plant response rating: Foxtail, Green (foxtail, green [2]; 62 g ai/ha): 95
- Plant response rating: Foxtail, Green (foxtail, green [2]; 125 g ai/ha): 95
- Plant response rating (0 to 100), Foxtail, Green (foxtail, green [3]): 70
- Plant response rating: Foxtail, Green (foxtail, green [3]; 62 g ai/ha): 100
- Plant response rating: Foxtail, Green (foxtail, green [3]; 125 g ai/ha): 100
- Plant response rating, Ryegrass, Italian (ryegrass, Italian; 31 g ai/ha): 30
- Plant response rating, Ryegrass, Italian (ryegrass, Italian; 125 g ai/ha): 60
- Plant response rating, Ragweed (ragweed [4]; 31 g ai/ha): 20
- Plant response rating, Ragweed (ragweed [4]; 125 g ai/ha): 60
- Plant response rating (0 to 100), Blackgrass (blackgrass): 35
- Plant response rating: Blackgrass (blackgrass; 31 g ai/ha): 40
- Plant response rating: Blackgrass (blackgrass; 62 g ai/ha): 65
- Plant response rating: Blackgrass (blackgrass; 125 g ai/ha): 95
- Plant response rating: Oilseed Rape (oilseed rape; 16 g ai/ha): 80
- Plant response rating: Oilseed Rape (oilseed rape; 31 g ai/ha): 90
- Plant response rating: Oilseed Rape (oilseed rape; 62 g ai/ha): 100
- Plant response rating: Oilseed Rape (oilseed rape; 125 g ai/ha): 100
- Plant response rating: Kochia (kochia; 16 g ai/ha): 90
- Plant response rating: Kochia (kochia; 31 g ai/ha): 90
- Plant response rating: Kochia (kochia; 62 g ai/ha): 90
- Plant response rating: Kochia (kochia; 125 g ai/ha): 90

SMILES: Fc1ccc(-c2nc(OCC(F)(F)F)n(Cc3ccnc(C(F)(F)F)c3)n2)cc1 [Compound 30]
- Plant response rating (0 to 100), Bromegrass, Down (bromegrass, down): 35
- Plant response rating: Bromegrass, Down (bromegrass, down; 31 g ai/ha): 40
- Plant response rating: Bromegrass, Down (bromegrass, down; 62 g ai/ha): 55
- Plant response rating: Bromegrass, Down (bromegrass, down; 125 g ai/ha): 70
- Plant response rating: Mustard, Wild (wild mustard; 16 g ai/ha): 90
- Plant response rating: Mustard, Wild (wild mustard; 31 g ai/ha): 100
- Plant response rating: Mustard, Wild (wild mustard; 62 g ai/ha): 100
- Plant response rating: Mustard, Wild (wild mustard; 125 g ai/ha): 100
- Plant response rating (0 to 100), Galium (galium): 70
- Plant response rating: Galium (galium; 62 g ai/ha): 80
- Plant response rating: Galium (galium; 125 g ai/ha): 85
- Plant response rating (0 to 100), Bluegrass (bluegrass): 75
- Plant response rating: Bluegrass (bluegrass; 31 g ai/ha): 75
- Plant response rating: Bluegrass (bluegrass; 62 g ai/ha): 100
- Plant response rating: Bluegrass (bluegrass; 125 g ai/ha): 100
- Plant response rating, Ragweed (ragweed [1]; 125 g ai/ha): 80
- Plant response rating, Ragweed (ragweed [1]; 500 g ai/ha, approx. 10 d): 80
- Plant response rating: Foxtail, Green (foxtail, green [2]; 16 g ai/ha): 55
- Plant response rating: Foxtail, Green (foxtail, green [2]; 31 g ai/ha): 75
- Plant response rating: Foxtail, Green (foxtail, green [2]; 62 g ai/ha): 85
- Plant response rating: Foxtail, Green (foxtail, green [2]; 125 g ai/ha): 90
- Plant response rating (0 to 100), Foxtail, Green (foxtail, green [3]): 85
- Plant response rating: Foxtail, Green (foxtail, green [3]; 62 g ai/ha): 100
- Plant response rating: Foxtail, Green (foxtail, green [3]; 125 g ai/ha): 100
- Plant response rating, Ryegrass, Italian (ryegrass, Italian; 125 g ai/ha): 90
- Plant response rating, Ryegrass, Italian (ryegrass, Italian; 500 g ai/ha, approx. 10 d): 100
- Plant response rating, Ragweed (ragweed [4]; 125 g ai/ha): 40
- Plant response rating, Ragweed (ragweed [4]; 500 g ai/ha): 70
- Plant response rating (0 to 100), Blackgrass (blackgrass): 30
- Plant response rating: Blackgrass (blackgrass; 31 g ai/ha): 45
- Plant response rating: Blackgrass (blackgrass; 62 g ai/ha): 60
- Plant response rating: Blackgrass (blackgrass; 125 g ai/ha): 70
- Plant response rating: Oilseed Rape (oilseed rape; 16 g ai/ha): 90
- Plant response rating: Oilseed Rape (oilseed rape; 31 g ai/ha): 75
- Plant response rating: Oilseed Rape (oilseed rape; 62 g ai/ha): 100
- Plant response rating: Oilseed Rape (oilseed rape; 125 g ai/ha): 100
- Plant response rating: Kochia (kochia; 16 g ai/ha): 85
- Plant response rating: Kochia (kochia; 31 g ai/ha): 90
- Plant response rating: Kochia (kochia; 62 g ai/ha): 90
- Plant response rating: Kochia (kochia; 125 g ai/ha): 95

SMILES: COc1nc(-c2ccc(Cl)cc2)nn1Cc1ccnc(C(F)(F)F)c1 [Compound 28]
- Plant response rating (0 to 100), Bromegrass, Down (bromegrass, down): 35
- Plant response rating: Bromegrass, Down (bromegrass, down; 31 g ai/ha): 40
- Plant response rating: Bromegrass, Down (bromegrass, down; 62 g ai/ha): 45
- Plant response rating: Bromegrass, Down (bromegrass, down; 125 g ai/ha): 45
- Plant response rating: Mustard, Wild (wild mustard; 16 g ai/ha): 90
- Plant response rating: Mustard, Wild (wild mustard; 31 g ai/ha): 100
- Plant response rating: Mustard, Wild (wild mustard; 62 g ai/ha): 100
- Plant response rating: Mustard, Wild (wild mustard; 125 g ai/ha): 100
- Plant response rating (0 to 100), Galium (galium): 65
- Plant response rating: Galium (galium; 62 g ai/ha): 75
- Plant response rating: Galium (galium; 125 g ai/ha): 80
- Plant response rating (0 to 100), Bluegrass (bluegrass): 25
- Plant response rating: Bluegrass (bluegrass; 31 g ai/ha): 35
- Plant response rating: Bluegrass (bluegrass; 62 g ai/ha): 45
- Plant response rating: Bluegrass (bluegrass; 125 g ai/ha): 85
- Plant response rating, Ragweed (ragweed [1]; 125 g ai/ha): 10
- Plant response rating, Ragweed (ragweed [1]; 500 g ai/ha, approx. 10 d): 40
- Plant response rating: Foxtail, Green (foxtail, green [2]; 16 g ai/ha): 25
- Plant response rating: Foxtail, Green (foxtail, green [2]; 31 g ai/ha): 35
- Plant response rating: Foxtail, Green (foxtail, green [2]; 62 g ai/ha): 60
- Plant response rating: Foxtail, Green (foxtail, green [2]; 125 g ai/ha): 80
- Plant response rating (0 to 100), Foxtail, Green (foxtail, green [3]): 80
- Plant response rating: Foxtail, Green (foxtail, green [3]; 62 g ai/ha): 85
- Plant response rating: Foxtail, Green (foxtail, green [3]; 125 g ai/ha): 100
- Plant response rating, Ryegrass, Italian (ryegrass, Italian; 125 g ai/ha): 20
- Plant response rating, Ryegrass, Italian (ryegrass, Italian; 500 g ai/ha, approx. 10 d): 90
- Plant response rating, Ragweed (ragweed [4]; 125 g ai/ha): 20
- Plant response rating, Ragweed (ragweed [4]; 500 g ai/ha): 30
- Plant response rating (0 to 100), Blackgrass (blackgrass): 30
- Plant response rating: Blackgrass (blackgrass; 31 g ai/ha): 30
- Plant response rating: Blackgrass (blackgrass; 62 g ai/ha): 50
- Plant response rating: Blackgrass (blackgrass; 125 g ai/ha): 50
- Plant response rating: Oilseed Rape (oilseed rape; 16 g ai/ha): 65
- Plant response rating: Oilseed Rape (oilseed rape; 31 g ai/ha): 75
- Plant response rating: Oilseed Rape (oilseed rape; 62 g ai/ha): 75
- Plant response rating: Oilseed Rape (oilseed rape; 125 g ai/ha): 85
- Plant response rating: Kochia (kochia; 16 g ai/ha): 85
- Plant response rating: Kochia (kochia; 31 g ai/ha): 85
- Plant response rating: Kochia (kochia; 62 g ai/ha): 85
- Plant response rating: Kochia (kochia; 125 g ai/ha): 95
